Structures can show the parent of a compound that is named as a salt.
Each compound was assayed on ACHN cell line (assay: drug screen of the SelleckChem kinase inhibitor library with and without 5 uM SU-329, Cell-Titer Glo after 5 days). Conditions: kinase inhibitor at 200 nM with and without 5 uM SU329; ACHN cell line; 5 days; Cell-Titer Glo.
Format: cell-based

First: O=C(O)[C@]1(Cc2cccc(Nc3nccs3)n2)CC[C@@H](Oc2cccc(Cl)c2F)CC1 [MK-5108 (VX-689)]
Second: Cn1c(Nc2ccc(C(F)(F)F)cc2)nc2cc(Oc3ccnc(-c4ncc(C(F)(F)F)[nH]4)c3)ccc21 [RAF265 (CHIR-265)]
The log2fc of the first is lower: −0.2429 for the first, 0.9001 for the second.

First: CC[C@@H]1C(=O)N(C)c2cnc(Nc3ccc(C(=O)NC4CCN(C)CC4)cc3OC)nc2N1C1CCCC1 [BI 2536]
Second: COCCNCc1ccc(-c2cc3nccc(Oc4ccc(NC(=S)NC(=O)Cc5ccc(F)cc5)cc4F)c3s2)nc1 [MGCD-265]
The log2fc of the first is higher: 1.415 for the first, 0.4311 for the second.

First: OCCn1cc(-c2cnc3nnn(Cc4ccc5ncccc5c4)c3n2)cn1 [PF-04217903]
Second: CN(C)Cc1cccc(N/C(=C2\C(=O)Nc3cc(C(=O)N(C)C)ccc32)c2ccccc2)c1 [BIX 02189]
The log2fc of the first is higher: 0.2177 for the first, −0.08248 for the second.

Going from Skepinone-L to COc1ccc(-c2ccc3c(N4CCOCC4)nc(N4C[C@@H](C)O[C@@H](C)C4)nc3n2)cc1CO [KU-0063794], the log2fc falls from −0.7997 to −1.551.

Nc1nccc(Oc2ccc(NC(=O)c3c[nH]cc(-c4ccc(F)cc4)c3=O)cc2F)c1Cl [BMS-794833] and Cc1ccc(S(=O)(=O)/C=C/C#N)cc1 [BAY 11-7082, reference compound] are within 0.2 log units of each other in log2fc: −0.04405 for the first, −0.1258 for the second.

First: CC(C)(C)c1cc(/C=C(\C#N)C(N)=S)cc(C(C)(C)C)c1O [Tyrphostin AG 879]
Second: O=C(Nc1ccc(OC(F)(F)F)cc1)c1sccc1NCc1ccnc2ccccc12 [OSI-930]
The log2fc of the first is higher: 0.3391 for the first, −0.2273 for the second.

First: CC1(COc2ccc3c(c2)ncn3-c2ccc3cccc(N4CCC(N)CC4)c3n2)COC1 [Crenolanib (CP-868596)]
Second: C[C@@H](NC(=O)c1ncnc(N)c1Cl)c1ncc(C(=O)Nc2cc(C(F)(F)F)c(Cl)cn2)s1 [MLN2480]
The log2fc of the first is lower: 0.3666 for the first, 0.5916 for the second.

Going from CCn1c2ccccc2c2cc(Nc3ccnc(NCCCN4CCOCC4)n3)ccc21 [EHop-016] to COc1cccc2cc(-c3nc([C@H]4CC[C@H](C(=O)O)CC4)n4ncnc(N)c34)[nH]c12 [OSI-027], the log2fc falls from 0.1156 to −1.494.

Going from CO[C@H]1C[C@@H]2CC[C@@H](C)[C@@](O)(O2)C(=O)C(=O)N2CCCC[C@H]2C(=O)O[C@H]([C@H](C)C[C@@H]2CC[C@@H](OC(=O)C(C)(CO)CO)[C@H](OC)C2)CC(=O)[C@H](C)/C=C(\C)[C@@H](O)[C@@H](OC)C(=O)[C@H](C)C[C@H](C)/C=C/C=C/C=C/1C [Temsirolimus (CCI-779, NSC 683864)] to FC(F)c1nc2ccccc2n1-c1nc(N2CCOCC2)nc(N2CCOCC2)n1 [ZSTK474], the log2fc rises from −1.524 to −0.8509.

Compared with CC(=O)Nc1cccc(-n2c(=O)n(C3CC3)c(=O)c3c(Nc4ccc(I)cc4F)n(C)c(=O)c(C)c32)c1 [Trametinib (GSK1120212)], Cc1c(F)cc(C(=O)NC2CC2)cc1-c1ccc(C(=O)NCC(C)(C)C)cn1 [Losmapimod (GW856553X)] is lower in log2fc: 0.4803 for the first, −0.5236 for the second.

CC(C)CCN1c2nc(Nc3cc(F)c(O)c(F)c3)ncc2N(C)C(=O)C1C (stereo not shown) [BI-D1870] and [H]/N=C(/N)N/C(=N/[H])NCCc1ccccc1 [Phenformin HCl] are within 0.2 log units of each other in log2fc: 0.7499 for the first, 0.5945 for the second.

Cc1ccc(Nc2nccc(N(C)c3ccc4c(C)n(C)nc4c3)n2)cc1S(N)(=O)=O.Cl [Pazopanib HCl (GW786034 HCl)] and N#C/C(=C/c1ccc(O)c(O)c1)C(=O)NCc1ccccc1 [AG-490 (Tyrphostin B42), AG-490, reference compound] are within 0.2 log units of each other in log2fc: 0.1817 for the first, −0.01509 for the second.

First: Cc1nc(Nc2cnn(C3CCNCC3)c2)nc2c1N(C)C(=O)c1cc3ccccc3cc1N2C [HTH-01-015]
Second: C=CCc1ccc(O)c(-c2ccc(O)c(CC=C)c2)c1 [Honokiol]
The log2fc of the first is higher: 0.3141 for the first, 0.09484 for the second.

First: Oc1cc(O)cc(/C=C/c2ccc(O)c(O)c2)c1 [Piceatannol]
Second: Cc1ccccc1-n1c(Cn2ncc3c(N)ncnc32)nc2cccc(C)c2c1=O [PIK-293]
The log2fc of the first is higher: 0.5447 for the first, 0.1249 for the second.

Compared with CNC(=O)Nc1ccc(-c2nc(N3CC4CCC(C3)O4)c3cnn(C4CCC5(CC4)OCCO5)c3n2)cc1 [WYE-125132 (WYE-132)], O=C1NC(=O)C(c2ccccc2[N+](=O)[O-])=C1Nc1ccc(O)c(Cl)c1 [SB415286] is higher in log2fc: 0.04946 for the first, 0.2736 for the second.

CCn1c(=O)c(-c2ccc(-c3cncs3)cc2Cl)cc2cnc(Nc3ccc(N4CCN(C)CC4)cc3)nc21 [FRAX597] and CC1=C(C(=O)Nc2cc3cn[nH]c3cc2F)C(c2ccc(C(F)(F)F)cc2)CC(=O)N1 (stereo not shown) [GSK429286A] are within 0.2 log units of each other in log2fc: −0.0718 for the first, −0.03939 for the second.

O=C(NOC[C@H](O)CO)c1ccc(F)c(F)c1Nc1ccc(I)cc1F [PD0325901] and 10058-F4 are within 0.2 log units of each other in log2fc: 0.3925 for the first, 0.2472 for the second.

First: CNc1nc(Nc2cnn([C@H]3CCN(C4COC4)C[C@@H]3F)c2Cl)ncc1C(F)(F)F [GNE-9605]
Second: O=C1NC(=O)/C(=C/c2ccc(-c3ccc(F)cc3O)o2)S1 [AS-252424]
The log2fc of the first is higher: 0.4092 for the first, −0.1563 for the second.

Compared with CC(C)NC[C@@H](C(=O)N1CCN(c2ncnc3c2[C@H](C)C[C@H]3O)CC1)c1ccc(Cl)cc1 [Ipatasertib (GDC-0068)], CC[C@H](CO)Nc1nc(NCc2ccccc2)c2ncn(C(C)C)c2n1 [Roscovitine (Seliciclib, CYC202)] is higher in log2fc: −0.5082 for the first, 0.5993 for the second.

Cc1cnc(Nc2ccc(OCCN3CCCC3)cc2)nc1Nc1cccc(S(=O)(=O)NC(C)(C)C)c1 [Fedratinib (SAR302503, TG101348)] and C[C@@H](Oc1cc(-c2cnn(C3CCNCC3)c2)cnc1N)c1c(Cl)ccc(F)c1Cl [Crizotinib (PF-02341066)] are within 0.2 log units of each other in log2fc: −0.003444 for the first, 0.196 for the second.

First: CCC[C@H](NC(=O)/C(C#N)=C/c1cccc(Br)n1)c1ccccc1 [Degrasyn (WP1130)]
Second: CC(C)(C)c1cc(NC(=O)Nc2ccc(-c3cn4c(n3)sc3cc(OCCN5CCOCC5)ccc34)cc2)no1 [Quizartinib (AC220)]
The log2fc of the first is lower: −0.132 for the first, 0.278 for the second.

Compared with N#Cc1ccc2[nH]c(O)c(-c3ccc(CN4CCOCC4)cn3)c2c1 [AZD1080], CN1CCN(CCOc2cc(OC3CCOCC3)c3c(Nc4c(Cl)ccc5c4OCO5)ncnc3c2)CC1 [Saracatinib (AZD0530)] is lower in log2fc: 1.953 for the first, 0.4009 for the second.

CO[C@@H](C(=O)N1Cc2[nH]nc(NC(=O)c3ccc(N4CCN(C)CC4)cc3)c2C1)c1ccccc1 [Danusertib (PHA-739358)] and CN(C)CCCn1cc(C2=C(c3c[nH]c4ccccc34)C(=O)NC2=O)c2ccccc21 [Bisindolylmaleimide I (GF109203X)] are within 0.2 log units of each other in log2fc: −0.1537 for the first, −0.2332 for the second.

CNC(=O)c1cc(Oc2ccc(NC(=O)Nc3ccc(Cl)c(C(F)(F)F)c3)cc2)ccn1 [Sorafenib, sorafenib, reference compound] and COc1cc2ncnc(Oc3ccc(CC(=O)Nc4cnn(C(C)C)c4)cc3)c2cc1OC [AZD2932] are within 0.2 log units of each other in log2fc: 0.2462 for the first, 0.4428 for the second.

C=CC(=O)Nc1cccc(Oc2nc(Nc3ccc(N4CCN(C)CC4)cc3OC)ncc2Cl)c1 [WZ4002, reference compound] and O=C(O)c1ccc(Nc2ncc3c(n2)-c2ccc(Cl)cc2C(c2c(F)cccc2F)=NC3)cc1 [MLN8054] are within 0.2 log units of each other in log2fc: −0.07545 for the first, 0.07059 for the second.

Going from CC(C)(C)c1cc(C=C(C#N)C#N)cc(Br)c1O [AG-1024] to Cc1cn(-c2cc(NC(=O)c3ccc(C)c(Nc4nccc(-c5cccnc5)n4)c3)cc(C(F)(F)F)c2)cn1 [Nilotinib (AMN-107)], the log2fc rises from −0.3636 to 0.331.

— patent US12195490B2, “STRAD-binding agents and uses thereof” (The Regents of the University of California, priority 2020, dated 2025)
